From patent US20250327028A1, “ENGINEERED PLATELETS AS TARGETED PROTEIN DEGRADERS” (Wisconsin Alumni Research Foundation, priority 2024, published 2025)

Legend:
[1] = system: HSP90α (Hsp90aa1) and HSP90β (Hsp90ab1); test: Streptavidin-mediated immunoprecipitation and mass spectrum analysis of biotin-labeled protein in 4T1 lysate; assay type: cell-based, murine; details: 4T1 cell lysate
Procedure: Streptavidin-mediated immunoprecipitation and mass spectrum analysis: 2×10^6 4T1 cells were seeded in T75 culture flasks and cultured for 24 h. Then, the medium in the corresponding flasks was replaced with 15 mL of blank medium with DMSO or HAC-B (10 μM). Following incubation for another 2 h, the cells were washed with cold PBS twice and digested with 2 mL trypsin. The cell pellets were collected through centrifugation at 1,200 rpm for 3 min and washed with cold PBS. The final pellets were directly lysed on ice with IP lysis buffer (50 mM Tris-HCl, pH 7.4; 150 mM NaCl; 2 mM EDTA; 1% NP-40) containing PMSF (1 mM) and the phosphatase inhibitor cocktail for 30 min. The lysates were collected and centrifuged at 10,000 g for 10 minutes at 4° C. The total proteins in the supernatants were quantified through the BCA assay, and 20 μL of lysate supernatants were saved as the input samples. To totally pull down the biotin-labeled contents, 150 μL of Pierce™ streptavidin magnetic beads was added to each supernatant, and the resulting mixtures were incubated at 4° C. with a gentle rotation overnight. Subsequently, the supernatant was discarded by placing the tubes on a magnetic rack, and the obtained magnetic beads were washed with IP lysis buffer three times. […] Finally, the bands were treated with ECL western blot substrate and detected by the iBright™ imaging system. […]

HSP90 = HSP90 expression in cancer cells after iHAC treatment; assay type: cell-based; details: all the cancer cells, various concentrations
Text: Immunoblot analysis: Immunoblot analysis was used to evaluate the expression of BRD4, HSP90, HSP90a, and PD-L1 in 4T1, WT MDA-MB-231, HSP90α-KO MDA-MB-231 or PEA-10 cells after various treatments and also served as the detection method for IP or co-IP experiments. The procedures for preparing IP or co-IP samples were indicated in the relevant experimental parts.
Sample preparation for various cancer cells after free HAC treatment: Various cells, including 4T1, WT MDA-MB-231, HSP90α-KO MDA-MB-231, or PEA-10 cells, were seeded in 6-well culture plates with a density of 5×10^4 cells in each well and cultured for 24 h. Then, if HAI pretreatment was performed, the cells were incubated in the HAI-containing blank medium at different concentrations for 2 h and washed with PBS twice before the following treatments. […]
General procedures for immunoblot analysis: After a 30-min lysis, the lysates were centrifuged at 10,000 g for 10 minutes at 4° C., and the corresponding supernatants were collected, followed by quantification of the total proteins in the supernatant through the BCA assay. […] Finally, the bands were treated with electrochemiluminescence (ECL) western blot substrate, detected by the iBright™ imaging system and quantified with ImageJ software. […]

SMILES	biotin-labeled protein immunoprecipitated by streptavidin beads (gel, immunoblot) ([1]; 10 μM, 2 h, vs sample without treatment)	protein identification on IP samples through mass spectrum ([1]; streptavidin IP)	HSP90 expression (HSP90)
N#CCN(C(=O)CCCC[C@@H]1SC[C@@H]2NC(=O)N[C@@H]21)S(=O)(=O)c1ccc(C(=O)NCCCn2c(Sc3cc4c(cc3I)OCO4)nc3c(N)ncnc32)cc1 [HAC-B, N-(3-(6-amino-8-((6-iodobenzo[d][1,3]dioxol-5-yl)thio)-9H-purin-9-yl)propyl)-4-(N-(cyanomethyl)-N-(5-((3aS,4S,6aR)-2-oxohexahydro-1H-thieno[3,4-d]imidazol-4-yl)pentanoyl)sulfamoyl)benzamide]	an additional HSP90 band appeared in the gel	could bind to both isoforms of HSP90, HSP90α (Hsp90aa1) and HSP90β (Hsp90ab1), with a favorable selectivity	
Cc1sc2c(c1C)C(c1ccc(Cl)cc1)=N[C@@H](CC(=O)NCc1cn(CCCC(=O)N(CC#N)S(=O)(=O)c3ccc(C(=O)NCCCn4c(Sc5cc6c(cc5I)OCO6)nc5c(N)ncnc54)cc3)nn1)c1nnc(C)n1-2 [iHAC, (S)—N-(3-(6-amino-8-((6-iodobenzo[d][1,3]dioxol-5-yl)thio)-9H-purin-9-yl)propyl)-4-(N-(4-(4-((2-(4-(4-chlorophenyl)-2,3,9-trimethyl-6H-thieno[3,2-f][1,2,4]triazolo[4,3-a][1,4]diazepin-6-yl)acetamido)methyl)-1H-1,2,3-triazol-1-yl)butanoyl)-N-(cyanomethyl)sulfamoyl)benzamide]			maintained a relatively stable HSP90 expression
